Reference: patent publication US11339171B2, “MDM2 inhibitors” (Gan & Lee Pharmaceuticals, priority 2017, dated 2022)
Several values for one entry are separate records, joined by “and”; a condition that tells them apart may be missing. Equal entries are not always repeated. Where two headings read alike, the source gives them in different places.

Key:
[1] = biological target: T1, MDM2 (Homo sapiens, UniProt Q00987); test: Inhibition test of MDM2-P53 (GST-MDM2, Biotin-P53, Anti-GST-Tb, SA-XL665); assay type: binding
T1 construct: made in house
T1 sequence (Q00987 whole entry): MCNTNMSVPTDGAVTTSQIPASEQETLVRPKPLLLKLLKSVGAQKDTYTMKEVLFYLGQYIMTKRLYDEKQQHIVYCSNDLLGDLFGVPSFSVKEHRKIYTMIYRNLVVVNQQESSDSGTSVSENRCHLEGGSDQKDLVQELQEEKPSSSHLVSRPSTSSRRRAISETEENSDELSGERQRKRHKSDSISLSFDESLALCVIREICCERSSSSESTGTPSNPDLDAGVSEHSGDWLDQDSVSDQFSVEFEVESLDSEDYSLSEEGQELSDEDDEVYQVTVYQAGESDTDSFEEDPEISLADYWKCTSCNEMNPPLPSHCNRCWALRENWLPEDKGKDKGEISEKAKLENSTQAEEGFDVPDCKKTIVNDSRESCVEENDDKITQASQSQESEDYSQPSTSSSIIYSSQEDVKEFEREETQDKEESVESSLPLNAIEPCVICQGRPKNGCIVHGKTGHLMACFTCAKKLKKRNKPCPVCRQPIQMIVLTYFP
How it was run: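 HTRF-type assay using 4 nM GST-MDM2 (final), Biotin-P53, SA-XL665 and anti-GST-Tb in PBS with 0.1% BSA, 5 mM DTT and 1 mM AEBSF. Compounds in 5-fold serial dilutions over twelve points; incubation 90 min at 25° C with shaking before plate-reader read-out.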

[2] = Pharmacokinetics in ICR mice after intravenous and intragastric administration; assay type: in vivo; details: for F*: PO 5 mg/kg vs IV 2 mg/kg, mean; for Vd: read-out: Vz; for MRT last: read-out: MRT(0-t); for MRT inf: read-out: MRT(0-∞)
How it was run: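 Compounds were dissolved at 0.5 mg/ml in DMSO/PEG400/HP-β-CD saline vehicle and given to overnight-fasted male ICR mice, 2 mg/kg by vein or 5 mg/kg by gavage (n=3 each). Plasma was then protein-precipitated, assayed by LC-MS/MS, and PK parameters including oral bioavailability were derived.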

[3] = tested on: human osteosarcoma cell line SJSA-1; test: Inhibition of proliferation of human osteosarcoma cell line SJSA-1 (DAPI staining, In Cell Analyzer); details: Homo sapiens, SJSA-1, 72 h, read-out: IC50 (nM), inhibitory activity on proliferation of human osteosarcoma cell line SJSA-1, SJSA-1, incubated 72 h
[4] = ICR mice, IV 2 mg/kg, individual animals 301-303, 2 mg/kg
[5] = ICR mice, PO 5 mg/kg, individual animals 401-403, 5 mg/kg
[6] = male, ICR, mouse, plasma, iv, 2 mg/kg, ICR mice, IV 2 mg/kg, individual animals 301-303, read-out: Cmax
[7] = male, ICR, mouse, plasma, iv, 2 mg/kg, ICR mice, IV 2 mg/kg, individual animals 301-303, read-out: Tmax
[8] = male, ICR, mouse, plasma, iv, 2 mg/kg, ICR mice, IV 2 mg/kg, individual animals 301-303
[9] = male, ICR, mouse, plasma, iv, 2 mg/kg, ICR mice, IV 2 mg/kg, mean of 3 animals
[10] = male, ICR, mouse, plasma, iv, 2 mg/kg, ICR mice, IV 2 mg/kg, mean of 3 animals, read-out: AUC(0-t)
[11] = male, ICR, mouse, plasma, iv, 2 mg/kg, ICR mice, IV 2 mg/kg, mean of 3 animals, read-out: Cmax
[12] = male, ICR, mouse, plasma, iv, 2 mg/kg, ICR mice, IV 2 mg/kg, mean of 3 animals, read-out: Tmax
[13] = male, ICR, mouse, plasma, iv, 2 mg/kg, ICR mice, IV 2 mg/kg, mean of 3 animals, read-out: t1/2 (converted)
[14] = male, ICR, mouse, plasma, po, 5 mg/kg, ICR mice, PO 5 mg/kg, individual animals 401-403
[15] = male, ICR, mouse, plasma, po, 5 mg/kg, ICR mice, PO 5 mg/kg, individual animals 401-403, read-out: AUC(0-t)
[16] = male, ICR, mouse, plasma, po, 5 mg/kg, ICR mice, PO 5 mg/kg, individual animals 401-403, read-out: Cmax
[17] = male, ICR, mouse, plasma, po, 5 mg/kg, ICR mice, PO 5 mg/kg, individual animals 401-403, read-out: Tmax
[18] = male, ICR, mouse, plasma, po, 5 mg/kg, ICR mice, PO 5 mg/kg, individual animals 401-403, read-out: t1/2 (converted)
[19] = male, ICR, mouse, plasma, po, 5 mg/kg, ICR mice, PO 5 mg/kg, mean of 3 animals
[20] = male, ICR, mouse, plasma, po, 5 mg/kg, ICR mice, PO 5 mg/kg, mean of 3 animals, read-out: AUC(0-t)
[21] = male, ICR, mouse, plasma, po, 5 mg/kg, ICR mice, PO 5 mg/kg, mean of 3 animals, read-out: Cmax
[22] = male, ICR, mouse, plasma, po, 5 mg/kg, ICR mice, PO 5 mg/kg, mean of 3 animals, read-out: Tmax
[23] = male, ICR, mouse, plasma, po, 5 mg/kg, ICR mice, PO 5 mg/kg, mean of 3 animals, read-out: t1/2 (converted)
[24] = male, ICR, mouse, plasma, po, 5 mg/kg, oral intragastric administration 5 mg/kg, read-out: AUC0-t

SMILES: COc1nc(OCCF)ncc1-c1nc2c(n1C(C)C)[C@@]1(C(=O)Nc3cc(Cl)ccc31)N(c1cc(Cl)ccc1C)C2=O [Example S-140, (S)-6-chloro-5′-(5-chloro-2-methylphenyl)-2′-(2-(2-fluoroethoxy)-4-methoxypyrimidin-5-yl)-3′-isopropyl-3′H-spiro[dihydroindole-3,4′-pyrrolo[3,4-d]imidazole]-2,6′(5′H)-dione]
- IC50 [1]: 1.06 nM
- AUC(0-t) [2, 4]: 9144.58 ng·h/mL and 19456.40 ng·h/mL and 11628.12 ng·h/mL
- CL [2, 4]: 3.37 mL/min/kg and 1.67 mL/min/kg and 2.26 mL/min/kg
- Cmax [2, 4]: 6627.89 ng/mL and 5215.16 ng/mL
- MRT(0-t) [2, 4]: 1.58 h and 3.73 h and 1.94 h
- Vz [2, 4]: 0.61 L/kg and 0.52 L/kg
- t1/2 [2, 4]: 1.70 h and 4.19 h and 2.67 h
- F* ([2]; ICR mice): 72.11%
- AUC(0-t) [2, 5]: 26053.96 ng·h/mL and 23914.34 ng·h/mL
- AUC(0-∞) [2, 5]: 26994.24 ng·h/mL and 26699.24 ng·h/mL
- Cmax [2, 5]: 5947.01 ng/mL and 4972.85 ng/mL
- MRT(0-t) [2, 5]: 2.67 h
- MRT(0-∞) [2, 5]: 2.93 h and 3.85 h
- Tmax [2, 5]: 1.00 h
- t1/2 [2, 5]: 1.54 h and 2.38 h
- Cmax [2, 6]: 4540 ng/mL
- Tmax [2, 7]: 0.08 h
- Vd [2, 8]: 0.5 L/kg
- clearance [2, 9]: 2.43 mL/min/kg
- AUC(0-t) [2, 10]: 13400 ng·h/mL
- Cmax [2, 11]: 5460 ng/mL
- MRT last [2, 9]: 2.42 h
- Tmax [2, 12]: 0.083 h
- Vd [2, 9]: 0.54 L/kg
- half-life [2, 13]: 2.86 h
- AUC(0-t) ([2]; male, ICR, mouse, plasma, iv, 2 mg/kg, ICR mice, IV 2 mg/kg, mean of 3 animals, second AUC column (c5) of Table 26, read-out: AUC(0-t)): 14900 ng·h/mL
- MRT last ([2]; male, ICR, mouse, plasma, iv, 2 mg/kg, ICR mice, IV 2 mg/kg, mean of 3 animals, second MRT column (c7) of Table 26): 3.36 h
- AUC(0-inf) [2, 14]: 24700 ng·h/mL
- AUC(0-t) [2, 15]: 22600 ng·h/mL
- Cmax [2, 16]: 4250 ng/mL
- MRT last [2, 14]: 2.97 h
- MRT inf [2, 14]: 3.69 h
- Tmax [2, 17]: 2 h
- half-life [2, 18]: 2.19 h
- AUC(0-inf) [2, 19]: 26100 ng·h/mL
- AUC(0-t) [2, 20]: 24200 ng·h/mL
- Cmax [2, 21]: 5060 ng/mL
- MRT last [2, 19]: 2.87 h
- MRT inf [2, 19]: 3.49 h
- Tmax [2, 22]: 1.67 h
- half-life [2, 23]: 2.04 h
- AUC(0-t) [2, 24]: 24200 ng·h/mL
- half-life ([2]; male, ICR, mouse, plasma, po, 5 mg/kg, oral intragastric administration 5 mg/kg, read-out: half-life (converted)): 2.04 h
- IC50 [3]: 81.5 nM

SMILES: COc1nc(C2CC2)ncc1-c1nc2c(n1C(C)C)[C@@]1(C(=O)Nc3cc(Cl)ccc31)N(c1cc(Cl)cnc1C)C2=O [Example S-159, (S)-6-chloro-5′-(5-chloro-2-methylpyridin-3-yl)-2′-(2-cyclopropyl-4-methoxypyrimidin-5-yl)-3′-isopropyl-3′H-spiro[dihydroindole-3,4′-pyrrolo[3,4-d]imidazole]-2,6′(5′H)-dione]
- IC50 [1]: 2.8 nM
- AUC(0-t) [2, 4]: 4456.51 ng·h/mL and 4501.92 ng·h/mL
- Cmax [2, 4]: 2591.90 ng/mL and 2457.53 ng/mL
- MRT(0-t) [2, 4]: 1.45 h and 1.52 h
- MRT(0-∞) [2, 4]: 2.00 h and 2.19 h
- Vz [2, 4]: 1.05 L/kg
- t1/2 [2, 4]: 1.75 h
- F* ([2]; ICR mice): 52.53%
- AUC(0-t) [2, 5]: 5902.77 ng·h/mL and 6839.45 ng·h/mL
- AUC(0-∞) [2, 5]: 6003.28 ng·h/mL and 7052.50 ng·h/mL
- Cmax [2, 5]: 1853.01 ng/mL and 1794.96 ng/mL
- MRT(0-t) [2, 5]: 2.27 h and 2.45 h
- MRT(0-∞) [2, 5]: 2.40 h and 2.68 h
- t1/2 [2, 5]: 1.28 h and 1.47 h
- AUC(0-inf) [2, 8]: 3720 ng·h/mL
- clearance [2, 8]: 17.9 mL/min/kg
- AUC(0-t) ([2]; male, ICR, mouse, plasma, iv, 2 mg/kg, ICR mice, IV 2 mg/kg, individual animals 301-303, read-out: AUC(0-t)): 3600 ng·h/mL
- Cmax [2, 6]: 2540 ng/mL
- MRT last [2, 8]: 1.23 h
- MRT inf [2, 8]: 1.45 h
- Tmax [2, 7]: 0.08 h
- Vd [2, 8]: 0.95 L/kg
- half-life ([2]; male, ICR, mouse, plasma, iv, 2 mg/kg, ICR mice, IV 2 mg/kg, individual animals 301-303, read-out: t1/2 (converted)): 1.22 h
- AUC(0-inf) [2, 9]: 4500 ng·h/mL
- clearance [2, 9]: 15.1 mL/min/kg
- AUC(0-t) [2, 10]: 4180 ng·h/mL
- Cmax [2, 11]: 2530 ng/mL
- MRT last [2, 9]: 1.4 h
- MRT inf [2, 9]: 1.88 h
- Tmax [2, 12]: 0.083 h
- Vd [2, 9]: 1.02 L/kg
- half-life [2, 13]: 1.61 h
- AUC(0-inf) [2, 14]: 3770 ng·h/mL
- AUC(0-t) [2, 15]: 3740 ng·h/mL
- Cmax [2, 16]: 1440 ng/mL
- MRT last [2, 14]: 1.9 h
- MRT inf [2, 14]: 1.95 h
- Tmax [2, 17]: 1 h
- half-life [2, 18]: 1.03 h
- AUC(0-inf) [2, 19]: 5610 ng·h/mL
- AUC(0-t) [2, 20]: 5500 ng·h/mL
- Cmax [2, 21]: 1700 ng/mL
- MRT last [2, 19]: 2.21 h
- MRT inf [2, 19]: 2.34 h
- Tmax [2, 22]: 1 h
- half-life [2, 23]: 1.26 h
- AUC(0-t) [2, 24]: 5500 ng·h/mL
- IC50 [3]: 34.2 nM
